Converted amounts (≈) assume the structure as drawn. Counter-ions that a name gives are not always drawn.
Columns and labels:
[1] = Measurement of the solubility of compounds in water (HPLC calibration curve); type: physicochemical; details: supersaturated in 1 ml of water, centrifuged, supernatant by HPLC; for solubility thermodynamic: read-out: Solubility (mg/10 ml of water)
Protocol: That is, 1 mg of each of the above compounds was completely dissolved in 1 ml of DMSO, which was then subjected to HPLC employing C18 resin, and the peak area of chromatogram was calculated. And then, 1 mg of each of the same compound was dissolved in 10 ml of DMSO, which was then subjected to the same HPLC as the above to obtain a chromatogram, and the peak area was calculated therefrom. A solubility calibration curve was prepared by employing the above two data, and a linear function was deduced from that to complete a calibration curve (X axis: area, Y axis: logarithm value of concentration).
Each of the same compounds was supersaturated in 1 ml of water, which was then centrifuged at 14,000 rpm for 1 min. The precipitate was separated from the supernatant which was then subjected to the same HPLC as the above to obtain a chromatogram, and the peak area was calculated therefrom. The obtained value was substituted to the above calibration curve to measure the solubility by mg/10 ml of water (see: Table 1).

[2] = target: T1, purified human EGFR kinase (Homo sapiens, UniProt P00533); test: Inhibition of EGFR tyrosine kinase (P32-ATP, biotin-conjugated substrate); type: biochemical; details: for IC50: purified human EGFR kinase, 50 μM ATP, 30° C., 10 min
T1 construct: purchased Promega
T1 sequence (P00533 25-1210): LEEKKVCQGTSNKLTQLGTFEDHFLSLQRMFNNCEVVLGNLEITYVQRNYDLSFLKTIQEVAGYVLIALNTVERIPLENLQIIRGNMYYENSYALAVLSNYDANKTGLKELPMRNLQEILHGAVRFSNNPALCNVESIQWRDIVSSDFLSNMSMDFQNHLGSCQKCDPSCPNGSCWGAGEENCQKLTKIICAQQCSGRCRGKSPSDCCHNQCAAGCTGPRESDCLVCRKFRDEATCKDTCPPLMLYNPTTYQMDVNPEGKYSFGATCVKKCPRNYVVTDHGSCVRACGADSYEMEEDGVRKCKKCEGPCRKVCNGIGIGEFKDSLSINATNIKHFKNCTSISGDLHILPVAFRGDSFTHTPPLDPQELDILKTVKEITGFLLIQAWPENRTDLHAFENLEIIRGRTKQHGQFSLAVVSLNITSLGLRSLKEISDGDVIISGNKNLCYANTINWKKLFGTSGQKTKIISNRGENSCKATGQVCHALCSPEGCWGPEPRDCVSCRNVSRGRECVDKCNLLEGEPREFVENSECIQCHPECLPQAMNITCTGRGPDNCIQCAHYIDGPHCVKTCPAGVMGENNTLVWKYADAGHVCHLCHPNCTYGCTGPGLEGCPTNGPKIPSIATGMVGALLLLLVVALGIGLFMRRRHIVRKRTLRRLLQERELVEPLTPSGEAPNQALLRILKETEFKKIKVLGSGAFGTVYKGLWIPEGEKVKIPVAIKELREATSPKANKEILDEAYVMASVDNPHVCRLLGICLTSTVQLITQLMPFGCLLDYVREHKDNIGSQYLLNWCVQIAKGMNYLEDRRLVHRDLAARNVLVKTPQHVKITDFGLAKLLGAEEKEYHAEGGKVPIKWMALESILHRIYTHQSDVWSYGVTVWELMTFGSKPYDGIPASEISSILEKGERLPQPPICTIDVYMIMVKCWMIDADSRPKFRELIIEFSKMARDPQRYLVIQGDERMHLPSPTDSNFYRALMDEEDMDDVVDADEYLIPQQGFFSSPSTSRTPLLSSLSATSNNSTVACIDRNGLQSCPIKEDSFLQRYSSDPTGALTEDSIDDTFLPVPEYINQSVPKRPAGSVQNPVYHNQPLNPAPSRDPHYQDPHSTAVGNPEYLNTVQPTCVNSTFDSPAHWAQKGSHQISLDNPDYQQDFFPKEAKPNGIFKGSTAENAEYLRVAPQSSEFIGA
Protocol: The test was accomplished in a 20 μl reaction volume using 0.1 unit per reaction of purified human EGFR kinase (Promega, U.S.A.) and 50 μM biotin-conjugated substrate for tyrosine kinase (Promega, U.S.A.) and, 50 μM P^32-γ-ATP (0.2 μCi) and 20 mM Tris-HCl (pH 7.5) were employed as an ATP and a reaction solution, respectively. The test was carried out at 30° C. for 10 min, and terminated by the addition of 10 μl of 30% phosphate solution. The half of the reaction product was spotted onto avidin-layered PVDF membrane, which was then washed with 20 mM Tris-HCl (pH 8.0) and 0.2N NaCl aqueous solution for more than 2 hours.

A431 cancer cell = test: Inhibition of cancer cell growth (sulforhodamine B); type: cell-based; details: for inhibitory effect of cancer cell growth compared with standard material DP153035: A431, comparison drawn from Table 3; for GI50: Homo sapiens, A-431, 48 h; for GI50 / A431 GI50: A431 cells, grown 2 days with compound, SRB staining
Protocol: A431 cancer cell was cultivated at 37° C. under an environment of 5% (v/v) CO2 employing RPMI 1640 medium containing 10% (v/v) fetal calf serum. […] The above cells was grown again for 2 days, and then, fixed with formalin solution (Sigma Chem. Co., U.S.A.) and washed with water. After that, the cells was dried in the atmosphere, stained with 0.1% (v/v) sulforhodamine B solution (Sigma Chem. Co., U.S.A.) for 30 min and wash with 1% (v/v) acetic acid aqueous solution. Then, dye attached to cells was extracted with 0.1M Tris-HCl (pH 8.0) and the absorbances of the remaining culture were measured at 520 nm by the aid of microplate reader. And then, the concentration of the compound by which cell growth is 50% inhibited was represented as GI50(s: Table 3).

[3] = background statement; cited from earlier work

Structure (SMILES)	IC50 [2] [nM]	inhibitory effect of cancer cell growth compared with standard material DP153035 (A431 cancer cell)	GI50 (A431 cancer cell) [µg/mL]	further results
CN1CCN(CC2COc3cc4ncnc(Nc5cccc(I)c5)c4cc3O2)CC1.Cl (centres unmarked) [Example 36, (3-iodophenyl)-[7-(4-methylpiperazin-1-yl)methyl-[1,4]dioxano[2,3-g]quinazolin-4-yl]amine hydrochloride]				Solubility (mg/10 ml of water) [1]: >>1,000 mg/10 ml of water
COCC1COc2cc3ncnc(Nc4cccc(C(F)(F)F)c4)c3cc2O1 (centres unmarked) [Example 12, (3-trifluoromethylphenyl)-(7-methoxymethyl-[1,4]-dioxano[2,3-g]quinazolin-4-yl)-amine]	> 256	better inhibitory effect of cancer cell growth than the standard material	0.43 (≈ 1.1 µM)	solubility thermodynamic [1]: 74 µg/mL (≈ 189 µM)
Brc1cccc(Nc2ncnc3cc4c(cc23)OC(CN2CCOCC2)CO4)c1 (centres unmarked) [Example 23, (3-bromophenyl)-[7-(morpholine-4-ylmethyl)-[1,4]dioxano[2,3-g]quinazolin-4-yl]-amine]	63.1		0.13 (≈ 0.284 µM)	
CC(C)[C@H](CO)NCC1COc2cc3ncnc(Nc4cccc(Br)c4)c3cc2O1 (some centres unmarked) [Example 29]	> 211		1.9 (≈ 4.01 µM)	
Brc1cccc(Nc2ncnc3cc4c(cc23)OC(CN2CCOCC2)CO4)c1 (centres unmarked) [Example 31, (3-bromophenyl)-[7-(morpholin-4-ylmethyl)-[1,4]dioxano[2,3-g]quinazolin-4-yl]amine hydrochloride]	101	better inhibitory effect of cancer cell growth than the standard material		Solubility (mg/10 ml of water) [1]: >>1,000 mg/10 ml of water; A431 GI50 (A431 cancer cell; hydrochloride): 0.19 µg/mL
Cl.OCCNCC1COc2cc3ncnc(Nc4cccc(I)c4)c3cc2O1 (centres unmarked) [Example 34, 2-[4-(3-iodophenylamine)-[1,4]dioxano[2,3-g]quinazolin-7-ylmethyl]amino ethanol hydrochloride]				Solubility (mg/10 ml of water) [1]: >>1,000 mg/10 ml of water
COCC1COc2cc3ncnc(Nc4cc(F)c(F)c(F)c4)c3cc2O1 (centres unmarked) [Example 18, (3,4,5-trifluorophenyl)-(7-methoxymethyl-[1,4]-ioxano[2,3-g]quinazolin-4-yl)-amine]	4.19		1.98 (≈ 5.25 µM)	inhibitory effect on EGFR tyrosine kinase compared with standard material DP153035 ([2]; comparison drawn from Table 2): higher inhibitory effect than the standard material; solubility thermodynamic [1]: 45 µg/mL (≈ 119 µM)
COc1cc2ncnc(Nc3ccc(F)c(Cl)c3)c2cc1OCCCN1CCOCC1 [ZD 1839]				solubility in water (in words) [3]: does not have a high solubility
C#Cc1cccc(Nc2ncnc3cc4c(cc23)O[C@H](COC)[C@@H](COC)O4)c1 [Example 48, (7,8-bismethoxymethyl[1,4]dioxano[2,3-g]quinazolin-4-yl)-[3-(ethynyl)phenyl]-amine]	> 255		1.89 (≈ 4.83 µM)	
COc1cc2ncnc(Nc3cccc(Br)c3)c2cc1OC [DP153035, reference compound]			0.99 (≈ 2.75 µM)	solubility thermodynamic [1]: 20 µg/mL (≈ 55.5 µM); solubility in water (in words) [3]: insolubility in water
COCC1COc2cc3ncnc(Nc4cc(Cl)cc(Cl)c4)c3cc2O1 (centres unmarked) [Example 13, (3,5-dichlorophenyl)-(7-methoxymethyl-[1,4]-dioxano[2,3-g]quinazolin-4-yl)-amine]	34.7	better inhibitory effect of cancer cell growth than the standard material	0.21 (≈ 0.535 µM)	solubility thermodynamic [1]: 8 µg/mL (≈ 20.4 µM)
COC[C@H]1Oc2cc3ncnc(Nc4cccc(I)c4)c3cc2O[C@@H]1COC [Example 45, (7,8-bismethoxymethyl[1,4]dioxano[2,3-g]quinazolin-4-yl)-(3-iodophenyl)amine]			1.59 (≈ 3.22 µM)	
CN1CCN(CC2COc3cc4ncnc(Nc5cccc(Br)c5)c4cc3O2)CC1 (centres unmarked) [Example 28, (3-bromophenyl)-[7-(4-methylpiperazin-1-yl)methyl-[1,4]dioxano[2,3-g]quinazolin-4-yl]amine]	8.91	better inhibitory effect of cancer cell growth than the standard material	0.22 (≈ 0.468 µM)	
CN1CCN(CC2COc3cc4ncnc(Nc5cccc(Br)c5)c4cc3O2)CC1 (centres unmarked) [Example 37, (3-bromophenyl)-[7-(4-methylpiperazin-1-yl)methyl-[1,4]dioxano[2,3-g]quinazolin-4-yl]amine hydrochloride]	123			A431 GI50 (A431 cancer cell; hydrochloride): 0.38 µg/mL
OCCN(CCO)CC1COc2cc3ncnc(Nc4cccc(Br)c4)c3cc2O1 (centres unmarked) [Example 33, N-[4-(3-bromophenylamine)-[1,4]dioxano[2,3-g]quinazolin-7-ylmethyl]-N-(2-hydroxyethyl)]-2-ethanolamine hydrochloride]	44.9	better inhibitory effect of cancer cell growth than the standard material		Solubility (mg/10 ml of water) [1]: >>1,000 mg/10 ml of water; A431 GI50 (A431 cancer cell; hydrochloride): 0.67 µg/mL
COC[C@H]1Oc2cc3ncnc(Nc4cccc(Br)c4)c3cc2O[C@@H]1COC [Example 44, (7,8-bismethoxymethyl[1,4]dioxano[2,3-g]quinazolin-4-yl)-(3-bromophenyl)-amine]	74.1		2.91 (≈ 6.52 µM)	
COCC1COc2cc3ncnc(Nc4cc(C)cc(C)c4)c3cc2O1 (centres unmarked) [Example 15, (3,5-dimethylphenyl)-(7-methoxymethyl-[1,4]-dioxano[2,3-g]quinazolin-4-yl)-amine]	> 285	better inhibitory effect of cancer cell growth than the standard material	0.06 (≈ 0.171 µM)	
Ic1cccc(Nc2ncnc3cc4c(cc23)OC(CN2CCOCC2)CO4)c1 (centres unmarked) [Example 22, (3-iodophenyl)-[7-(morpholine-4-ylmethyl)-[1,4]dioxano[2,3-g]quinazolin-4-yl]-amine]	25.1	better inhibitory effect of cancer cell growth than the standard material	0.38 (≈ 0.753 µM)	
COCC1COc2cc3ncnc(Nc4ccc(F)c(Cl)c4)c3cc2O1 (centres unmarked) [Example 17, (3-chloro-4-fluorophenyl)-(7-methoxymethyl-[1,4]-dioxano[2,3-g]quinazolin-4-yl)-amine]	97.7	better inhibitory effect of cancer cell growth than the standard material	0.6 (≈ 1.6 µM)	
OCCNCC1COc2cc3ncnc(Nc4cccc(Br)c4)c3cc2O1 (centres unmarked) [Example 27, 2-[4-(3-bromophenylamine)-[1,4]dioxano[2,3-g]quinazolin-7-ylmethyl]amino-ethanol]	28.2			A431 GI50 (A431 cancer cell): 0.22 µg/mL
OCCN(CCO)CC1COc2cc3ncnc(Nc4cccc(Br)c4)c3cc2O1 (centres unmarked) [Example 25]	100		0.61 (≈ 1.28 µM)	
COCC1COc2cc3ncnc(Nc4cccc(Br)c4)c3cc2O1 (centres unmarked) [Example 10, (3-bromophenyl)-(7-methoxymethyl-[1,4]-dioxano[2,3-g]quinazolin-4-yl)-amine]	35.5	better inhibitory effect of cancer cell growth than the standard material	0.24 (≈ 0.597 µM)	solubility thermodynamic [1]: 241 µg/mL (≈ 599 µM)
OCCNCC1COc2cc3ncnc(Nc4cccc(Br)c4)c3cc2O1 (centres unmarked) [Example 35, 2-[4-(3-bromophenylamine)-[1,4]dioxano[2,3-g]quinazolin-7-ylmethyl]amino ethanol hydrochloride]	49.9	better inhibitory effect of cancer cell growth than the standard material		Solubility (mg/10 ml of water) [1]: >>1,000 mg/10 ml of water; A431 GI50 (A431 cancer cell; hydrochloride): 0.95 µg/mL
COCC1COc2cc3ncnc(Nc4ccc(C)c(Cl)c4)c3cc2O1 (centres unmarked) [Example 16, (3-chloro-4-methylphenyl)-(7-methoxymethyl-[1,4]-dioxano[2,3-g]quinazolin-4-yl)-amine]				solubility thermodynamic [1]: 457 µg/mL (≈ 1230 µM)
COC[C@H]1Oc2cc3ncnc(Nc4cccc(Cl)c4)c3cc2O[C@@H]1COC [Example 46, (7,8-bismethoxymethyl[1,4]dioxano[2,3-g]quinazolin-4-yl)-(3-chlorophenyl)-amine]	> 249		2.37 (≈ 5.9 µM)	
Cl.Ic1cccc(Nc2ncnc3cc4c(cc23)OCC(CN2CCOCC2)O4)c1 (centres unmarked) [Example 30]				Solubility (mg/10 ml of water) [1]: >>1,000 mg/10 ml of water
